Where no end group is shown, it is not given here. The star is where a group is joined. Lauroyl = CCCCCCCCCCCC(=O)*
Legend:
recombinant TGF-β1 = recombinant TGF-β1 (Homo sapiens, UniProt P01137); conditions: among all possible 7-mer peptide sequences; cited from earlier work
[1] = tested on: Rabbit Full Thickness Articular Cartilage Defects; experiment: Animal observation and gross pathology of rabbit knee cartilage defects at 12 weeks; assay type: in vivo, New Zealand White Rabbits; conditions: gross examination at 12 weeks
Protocol: Animal study was conducted at Northwestern University (Chicago, Ill.) in accordance with a protocol approved by the University's Animal Care and Usage Committee (ACUC). Ten (10) male New Zealand White Rabbits (weighing 3-3.5 kg) were anesthetized by intramuscular injection of ketamine at 30-40 mg/kg and xylazine 5-7 mg/kg. Isoflourane (1-3%) and oxygen were supplied by face mask until the animal was induced to sedation and general anesthesia for the entire procedure. Life support monitoring was supervised by veterinarians at Northwestern University's Center for Comparative Medicine (CCM, Chicago, Ill.). Under sterile aseptic technique, a midline 2-cm incision was made with the knee flexed at 20 degrees and subsequently a medial parapatellar capsulotomy was performed and the patella was translated laterally to expose the articular surface of the trochlea. Two full thickness chondral defects 2-mm in diameter were created in the trochlea (proximal-medial and distal-lateral) using curettes. […]
Post-operatively each rabbit was given intramuscular (IM) antibiotics (Baytril 72 hours duration) and IM pain medicine (Buprenex 24 hours duration). Signs of local or systemic infection were recorded as well as the general health and recovery of the rabbits. Rabbits were also evaluated for ability to weight bear and mobility within cages. […]

[2] = tested on: Rabbit Full Thickness Articular Cartilage Defects; experiment: Histological evaluation (O'Driscoll scoring) of cartilage regeneration after microfracture in rabbit articular cartilage defect model; assay type: in vivo, New Zealand White Rabbits
Protocol: Animal study was conducted at Northwestern University (Chicago, Ill.) in accordance with a protocol approved by the University's Animal Care and Usage Committee (ACUC). Ten (10) male New Zealand White Rabbits (weighing 3-3.5 kg) were anesthetized by intramuscular injection of ketamine at 30-40 mg/kg and xylazine 5-7 mg/kg. Isoflourane (1-3%) and oxygen were supplied by face mask until the animal was induced to sedation and general anesthesia for the entire procedure. Life support monitoring was supervised by veterinarians at Northwestern University's Center for Comparative Medicine (CCM, Chicago, Ill.). Under sterile aseptic technique, a midline 2-cm incision was made with the knee flexed at 20 degrees and subsequently a medial parapatellar capsulotomy was performed and the patella was translated laterally to expose the articular surface of the trochlea. Two full thickness chondral defects 2-mm in diameter were created in the trochlea (proximal-medial and distal-lateral) using curettes. The articular cartilage, including the calcified cartilage layer, was completely removed and subchondral bone was exposed using a micro-curette as shown in FIG. 4a. Care was taken to not disrupt the subchondral bone, and sharp edges were created at the transition zone with the surrounding intact cartilage. Microfracture was performed within the defects by creating 3 holes spaced equally apart, and 2-mm deep to subchondral bone with a micro-awl. Marrow blood was seen emerging out of each microfracture hole and was allowed to infiltrate the cartilage defect (see FIG. 4b), which was then treated as described in Example 4.2 by application of the TGF-binding peptide amphiphile gel, or a control gel, with or without the addition of exogenous recombinant TGF-β1.
Post-operatively each rabbit was given intramuscular (IM) antibiotics (Baytril 72 hours duration) and IM pain medicine (Buprenex 24 hours duration). Signs of local or systemic infection were recorded as well as the general health and recovery of the rabbits. Rabbits were also evaluated for ability to weight bear and mobility within cages. At 12-weeks post-surgery rabbits were euthanized by injection of pentobarbital intravenously with a secondary measure of bilateral thoracotomy. Subsequently, the distal femur was harvested and processed for histological analysis.
Two full-thickness defects were created in each knee, resulting in 4 defects per rabbit (or 40 defects total for the 10 rabbits studied). Rabbit knees were divided into 4 groups, with both defects in each knee receiving the same treatment, and the contralateral knee serving as a control to account for any systemic effects. A total volume of 10 microliters (uL) of the test solutions were administered directly to each cartilage defect by micropipette, using sterile, disposable plastic tips. The treatment received by each group is summarized as follows:
In order to induce gelation of the peptide amphiphile solutions in situ in the defect site, 8 uL of a 12.5 mg/mL PA solution in phosphate-buffered saline (PBS) was administered followed immediately by 2 uL of a 0.5 M CaCl2 (in water), resulting in a final concentration of 10 mg/mL of the peptide amphiphile and 100 mM CaCl2. Recombinant human TGF-β1 (rhTGF-β1, Peprotech Inc.) was included in the PA solutions for Group 1, 2 and 3, in a concentration of […], resulting in a total dose of 1 ng per defect at the treatment dose of 10 uL. For animals receiving the TGF-binding peptide amphiphile (SEQ ID NO:4) this molecule was mixed at 10 mol % with the filler peptide amphiphile (SEQ ID NO:8) (a 1:9 molecular ratio). Each defect received 0.1 mg total peptide amphiphile (10 mg/mL in a 10 uL dose), either filler PA alone (Group 2) or filler PA plus TGF-binding PA (Group 3 and 4).
After the animals were sacrificed and tissue harvested at 12 weeks, extracted femur specimens were fixed in 10% neutral buffered formalin, decalcified for 24 hours, and the tissue processed for paraffin embedding. […]

[3] = O'Driscoll score = 0, 1, 2 or 3, Mean ± SD, 12-weeks post-treatment
[4] = O'Driscoll score = 0, 1 or 2, Mean ± SD, 12-weeks post-treatment

Sequence of recombinant TGF-β1 (P01137 279-390 limits assumed): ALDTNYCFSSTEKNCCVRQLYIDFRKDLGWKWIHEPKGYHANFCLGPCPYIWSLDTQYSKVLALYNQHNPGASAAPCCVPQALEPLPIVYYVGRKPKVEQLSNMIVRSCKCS

Substance: HSNGLPL
- binding to recombinant TGF-β1 (phage display) (recombinant TGF-β1): strong, specific binding sequence

Substance: HSNGLPLGGGSEEEAAAVVV(K)-CO(CH2)10CH3 (HSNGLPLGGGSEEEAAAVVVK(Lauroyl)) [TGF-binding PA]
- macroscopic appearance of repair tissue (tissue fill, defect boundary) [1]: significantly more hyaline-like tissue filling the defects

Substance: rhTGF-β1: Recombinant human TGF-β1 (Peprotech Inc.); Group 1: 10 uL of PBS with 1 ng of rhTGF-β1
- qualitative assessment of histological sections (tissue morphology, defect fill, Safranin-O and Type II collagen staining) ([2]; 12 weeks, compared to controls): few had complete filling of the defect area
- Degenerative Changes [2, 3]: 2.70 ± 0.35
- Hypocellularity [2, 3]: 1.96 ± 0.72
- Safranin-O staining of matrix [2, 3]: 1.48 ± 0.60
- Surface regularity [2, 3]: 2.00 ± 0.80
- Bonding to adjacent cartilage [2, 4]: 1.33 ± 0.53
- Chondrocyte clustering [2, 4]: 1.26 ± 0.40
- Structural integrity [2, 4]: 1.07 ± 0.62
- Thickness [2, 4]: 1.15 ± 0.60
- Cellular morphology ([2]; O'Driscoll score = 0, 2, or 4, Mean ± SD, 12-weeks post-treatment): 2.56 ± 1.43
- Total (max. score = 24) ([2]; O'Driscoll total histological score, Mean ± SD, 12-weeks post-treatment): 15.52 ± 4.74
- O'Driscoll histological score ([2]; maximum possible score of 24, 12 weeks): 15.5±4.7
- defects with <50% thickness compared to the surrounding cartilage ([2]; number of defects, 12 weeks): 1 of 9
- defects with mild chondrocyte clustering ([2]; number of defects, 12 weeks): 7 of 9
- defects with normal cellularity in the regenerated tissue ([2]; number of defects, 12 weeks): 2 of 9
- defects with regenerated tissue completely bonded to the adjacent cartilage ([2]; number of defects, 12 weeks): 3 of 9
- defects with >50% but <100% (50%-100%) thickness compared to the surrounding cartilage ([2]; number of remaining defects, 12 weeks): 8

Source: patent US8450271B2, “Peptide-based scaffolds for cartilage regeneration and methods for their use” (Northwestern University, priority 2009, dated 2013)
